Assays:
keratin 5 = assay: In vitro assay for keratin 5 production in keratinocytes; assay type: cell-based; details: concentration of 0.01%
[1] = test system: lipid peroxidation in keratinocytes; assay: In vitro assay of lipid peroxidation in keratinocytes; assay type: cell-based; details: concentration of 0.001%
MMP-3 = MMP-3 (Homo sapiens, UniProt P08254); assay: In vitro assay of MMP-3 enzymatic activity; assay type: biochemical; details: concentration of 2×10^−7%
collagen IV = details: fibroblasts; concentrations of 2×10^−5% and 2×10^−6%
fibronectin = details: fibroblasts; concentrations of 2×10^−5% and 2×10^−6%
elastin = details: fibroblasts; concentrations of 2×10^−5% and 2×10^−6%

MMP-3, sequence (P08254 100-477, species assumed): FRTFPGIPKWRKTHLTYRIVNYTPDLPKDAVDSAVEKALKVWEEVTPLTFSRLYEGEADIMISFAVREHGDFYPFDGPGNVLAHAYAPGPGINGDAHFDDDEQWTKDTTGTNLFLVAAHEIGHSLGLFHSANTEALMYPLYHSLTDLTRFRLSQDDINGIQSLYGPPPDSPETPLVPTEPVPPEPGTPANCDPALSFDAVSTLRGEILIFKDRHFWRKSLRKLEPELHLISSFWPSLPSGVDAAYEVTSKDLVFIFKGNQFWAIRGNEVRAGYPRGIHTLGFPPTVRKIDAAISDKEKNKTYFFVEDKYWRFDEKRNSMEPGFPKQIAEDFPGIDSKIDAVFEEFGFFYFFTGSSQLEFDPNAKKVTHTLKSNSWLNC

In the case of CN(CC(=O)O)C(=N)N [creatine], the “keratin 5 production” value (keratin 5) is reported as “can increase keratin 5 production”.

In the case of CC(=O)Oc1c(C)c(C)c2c(c1C)CCC(C)(CCC[C@H](C)CCC[C@H](C)CCCC(C)C)O2 (stereo partly drawn) [tocopherol acetate], the lipid peroxidation [1] is reported as “can inhibit lipid peroxidation”.

For N-biotinyl-gly-his-lys, the “enzymatic activity of MMP-3” value (MMP-3) was “can decrease enzymatic activity”, the “production of collagen IV” value (collagen IV) was “can increase production” and the production of fibronectin (fibronectin) was “can increase production”. For the same compound, the production of elastin (elastin) was “can increase production”.
